Where a name gives a salt, the structure may show the parent alone.
Tested on: ACHN cell line
Assay: drug screen of the SelleckChem kinase inhibitor library with and without 5 uM SU-329, Cell-Titer Glo after 5 days
Format: cell-based
Settings: not given

Point of comparison: N#CC(=C(/N)Sc1ccccc1N)/C(C#N)=C(\N)Sc1ccccc1N [U0126-EtOH, U0126, reference compound], log2fc −0.3988. Against it:
- CHIR-98014 — higher, 3.928

Same assay, conditions: kinase inhibitor at 200 nM with and without 5 uM SU329; ACHN cell line; 5 days; Cell-Titer Glo

Point of comparison: CO[C@H]1C[C@@H]2CC[C@@H](C)[C@@](O)(O2)C(=O)C(=O)N2CCCC[C@H]2C(=O)O[C@H]([C@H](C)C[C@@H]2CC[C@H](n3cnnn3)[C@H](OC)C2)CC(=O)[C@H](C)/C=C(\C)[C@@H](O)[C@@H](OC)C(=O)[C@H](C)C[C@H](C)/C=C/C=C/C=C/1C [Zotarolimus (ABT-578)], log2fc −1.34. Against it:
- COc1cc2c(c(OC)c1OC)-c1c(cc3c(c1OC)OCO3)CC(C)C(C)C2 (stereo not drawn) [Schisandrin B (Sch B)] — higher, 0.5674
- Cn1cnc2c(F)c(Nc3ccc(Br)cc3Cl)c(C(=O)NOCCO)cc21 [Selumetinib (AZD6244), selumetinib, reference compound] — higher, 0.357
- Cc1cc(C)c(/C=C2\C(=O)Nc3ccccc32)[nH]1 [Semaxanib (SU5416)] — higher, −0.8277
- CNC(=O)c1cc(Oc2ccc(NC(=O)Nc3ccc(Cl)c(C(F)(F)F)c3)cc2)ccn1 [Sorafenib Tosylate] — higher, −0.2533
- CNC(=O)c1cc(Oc2ccc(NC(=O)Nc3ccc(Cl)c(C(F)(F)F)c3)cc2)ccn1 [Sorafenib, sorafenib, reference compound] — higher, 0.2462
- CN1CCN(c2nc(C3=C(c4c[nH]c5ccccc45)C(=O)NC3=O)c3ccccc3n2)CC1 [Sotrastaurin] — higher, 0.054
- CCN(CC)CCNC(=O)c1c(C)[nH]c(/C=C2\C(=O)Nc3ccc(F)cc32)c1C [Sunitinib Malate, sunitinib, reference compound] — higher, −0.1249
- CNC(=O)c1ccccc1Nc1nc(Nc2ccc(N3CCOCC3)cc2OC)ncc1Cl [TAE226 (NVP-TAE226)] — higher, −0.08897
- CC(C)(O)CC(=O)NCCn1ccc2ncnc(Nc3ccc(Oc4cccc(C(F)(F)F)c4)c(Cl)c3)c21 [TAK-285, reference compound] — higher, 0.3876
- N#Cc1c(Oc2ccc(F)c(NC(=O)Cc3cccc(C(F)(F)F)c3)c2)ccc2nc(NC(=O)C3CC3)sc12 [TAK-632] — higher, 0.4732
- CCc1nc(-c2cccc(C)c2)c(-c2ccnc(NC(=O)c3ccccc3)c2)s1 [TAK-715] — higher, 0.02439
- Cn1c(=O)c(F)c(Nc2ccc(I)cc2F)c2c(=O)n(C[C@@H](O)CO)cnc21 [TAK-733, reference compound] — higher, 0.08618
- CCS(=O)(=O)c1cccc(-c2cc(C(=O)NC3CCN(C)CC3)c(C)c3[nH]c4ncc(C)cc4c23)c1 [TAK-901] — higher, 0.2818
- Cn1sc(=O)n(Cc2ccccc2)c1=O [TDZD-8] — higher, 0.1552
- CCN1/C(=C/C(C)=O)Sc2ccc(OC)cc21 [TG003] — higher, 0.4163
- Nc1nc(N)c2nc(-c3cccc(O)c3)c(-c3cccc(O)c3)nc2n1 [TG100-115] — higher, 0.2334
- Cc1cnc(Nc2ccc(N3CCN(C)CC3)cc2)nc1Nc1cccc(S(=O)(=O)NC(C)(C)C)c1 [TG101209] — higher, −0.1573
- Cc1cc(C(C)Nc2ccccc2)c2nc(N3CCOCC3)cc(=O)n2c1 (stereo not drawn) [TGX-221] — higher, −0.3415
- NC(=O)Nc1sc(-c2ccc(F)cc2)cc1C(N)=O [TPCA-1] — higher, −0.08928
- Nc1cccc(-c2cc3c(Oc4cccc(O)c4)ncnc3[nH]2)c1 [TWS119] — higher, 0.52
- CNC(=O)c1cc(COc2nnc(Nc3ccc(Cl)cc3)c3ccoc23)ccn1 [Telatinib] — higher, 0.2479
- CO[C@H]1C[C@@H]2CC[C@@H](C)[C@@](O)(O2)C(=O)C(=O)N2CCCC[C@H]2C(=O)O[C@H]([C@H](C)C[C@@H]2CC[C@@H](OC(=O)C(C)(CO)CO)[C@H](OC)C2)CC(=O)[C@H](C)/C=C(\C)[C@@H](O)[C@@H](OC)C(=O)[C@H](C)C[C@H](C)/C=C/C=C/C=C/1C [Temsirolimus (CCI-779, NSC 683864)] — within 0.2 log units, −1.524
- CN1CCC(COc2cnc(-c3cccc(Cn4nc(-c5cccc(C#N)c5)ccc4=O)c3)nc2)CC1 [Tepotinib (EMD 1214063)] — higher, 0.04059
- O=C(NCc1ccccc1)c1csc(Nc2ccncn2)n1 [Thiazovivin] — higher, −0.4963
- O=c1sn(-c2cccc3ccccc23)c(=O)n1Cc1ccccc1 [Tideglusib] — higher, −0.007073
- COc1ccc2cc(-c3nc(-c4ccc([S+](C)[O-])cc4)[nH]c3-c3ccncc3)ccc2c1 (stereo not drawn) [Tie2 kinase inhibitor] — higher, −0.08697
- O=C1NC(=O)[C@@H](c2cn3c4c(cccc24)CCC3)[C@@H]1c1c[nH]c2ccccc12 [Tivantinib (ARQ 197)] — higher, 0.2709
- COc1cc2nccc(Oc3ccc(NC(=O)Nc4cc(C)on4)c(Cl)c3)c2cc1OC [Tivozanib (AV-951)] — higher, 0.798
- C[C@@H]1CCN(C(=O)CC#N)C[C@@H]1N(C)c1ncnc2[nH]ccc12.O=C(O)CC(O)(CC(=O)O)C(=O)O [Tofacitinib (CP-690550) Citrate] — higher, 0.3512
- C[C@@H]1CCN(C(=O)CC#N)C[C@@H]1N(C)c1ncnc2[nH]ccc12 [Tofacitinib (CP-690550, Tasocitinib)] — higher, 0.6421
- Nc1ccc(-c2ccc3ncc4ccc(=O)n(-c5cccc(C(F)(F)F)c5)c4c3c2)cn1 [Torin 2] — higher, 1.267
- CC(C)n1nc(-c2cc3cc(O)ccc3[nH]2)c2c(N)ncnc21 [Torkinib (PP242)] — higher, −0.3157
- Cc1cc(Nc2cc(N3CCN(C)CC3)nc(Sc3ccc(NC(=O)C4CC4)cc3)n2)n[nH]1 [Tozasertib (VX-680, MK-0457)] — higher, 0.9265
- CC(=O)Nc1cccc(-n2c(=O)n(C3CC3)c(=O)c3c(Nc4ccc(I)cc4F)n(C)c(=O)c(C)c32)c1 [Trametinib (GSK1120212)] — higher, 0.4803
- CC(C)(C)c1cc(C=C(C#N)C#N)cc(C(C)(C)C)c1O [Tyrphostin 9] — higher, −0.5358
- CC(C)(C)c1cc(/C=C(\C#N)C(N)=S)cc(C(C)(C)C)c1O [Tyrphostin AG 879] — higher, 0.3391
- CN1CCN(Cc2ccc(-c3cnc4[nH]cc(-c5ccc6[nH]ccc6c5)c4c3)cc2)CC1 [URMC-099] — higher, 0.3515
- Cn1ncc(Cl)c1-c1cc(C(=O)N[C@H](CN)Cc2ccc(F)c(F)c2)oc1Cl [Uprosertib (GSK2141795)] — within 0.2 log units, −1.387
- CNCc1ccc(-c2cc(-c3nc(-c4ccc(S(=O)(=O)C(C)C)cc4)cnc3N)on2)cc1 [VE-822] — higher, 0.3083
- NC(=O)c1ccc(N(C(N)=O)c2c(F)cccc2F)nc1-c1ccc(F)cc1F [VX-702] — higher, −0.1168
- O=c1ncn2nc(Sc3ccc(F)cc3F)ccc2c1-c1c(Cl)cccc1Cl [VX-745] — higher, −0.2953
- C[C@@H]1COC(Nc2ccc3ncnc(Nc4ccc(OCc5nccs5)c(Cl)c4)c3c2)=N1 [Varlitinib] — higher, 0.7999
- Cl.Cl.Clc1ccc(Nc2nnc(Cc3ccncc3)c3ccccc23)cc1 [Vatalanib (PTK787) 2HCl] — higher, −0.4289
- CCCS(=O)(=O)Nc1ccc(F)c(C(=O)c2c[nH]c3ncc(-c4ccc(Cl)cc4)cc23)c1F [Vemurafenib (PLX4032, RG7204), vemurafenib, reference compound] — higher, 0.009154
- CNC(=O)c1cccc(-c2ccc3c(N4CCOC[C@@H]4C)nc(N4CCOC[C@@H]4C)nc3n2)c1 [Vistusertib (AZD2014)] — higher, −0.8127
- CC[C@@H]1C(=O)N(C)c2cnc(Nc3ccc(C(=O)N[C@H]4CC[C@H](N5CCN(CC6CC6)CC5)CC4)cc3OC)nc2N1C(C)C [Volasertib (BI 6727)] — higher, 0.6372
- c1cncc(CN2CCC(n3ncc4c(N5CCOCC5)nc(-c5ccc6[nH]ccc6c5)nc43)CC2)c1 [WAY-600] — within 0.2 log units, −1.322
- COc1cc2ncnc(Nc3ccc(O)c(Br)c3)c2cc1OC [WHI-P154] — higher, 0.511
- C[C@H](NC(=O)/C(C#N)=C/c1cccc(Br)n1)c1ccccc1 [WP1066] — higher, −0.4551
- COC(=O)Nc1ccc(-c2nc(N3CCOCC3)c3cnn(C4CCN(C(=O)OC)CC4)c3n2)cc1 [WYE-354] — within 0.2 log units, −1.143
- CNC(=O)Nc1ccc(-c2nc(N3CC4CCC(C3)O4)c3cnn(C4CCC5(CC4)OCCO5)c3n2)cc1 [WYE-125132 (WYE-132)] — higher, 0.04946
- C=CC(=O)Nc1cccc(Oc2nc(Nc3ccc(N4CCN(C)CC4)cc3)ncc2Cl)c1 [WZ3146, reference compound] — higher, 0.05459
- C=CC(=O)Nc1cccc(Oc2nc(Nc3ccc(N4CCN(C)CC4)cc3OC)ncc2Cl)c1 [WZ4002, reference compound] — higher, −0.07545
- C=CC(=O)Nc1cccc(Oc2nc(Nc3ccc(N4CCN(C)CC4)cc3OC)ncc2Cl)c1 [WZ4003] — higher, −0.1405
- C=CC(=O)Nc1cccc(Sc2nc(Nc3ccc(N4CCN(C)CC4)cc3)ncc2Cl)c1 [WZ8040, reference compound] — higher, 0.02092
- O=C(Nc1ccc(-c2ccnc(Nc3ccc(N4CCOCC4)cc3)n2)cc1)C1CCCN1 (stereo not drawn) [XL019] — higher, −0.1669
- CCOc1cc(N2CCC(O)CC2)ccc1Nc1ncc2c(n1)N(C)c1ccccc1C(=O)N2C [XMD8-92] — higher, −0.09901
- C[C@@H](N)[C@H]1CC[C@H](C(=O)Nc2ccncc2)CC1.Cl.Cl [Y-27632 2HCl] — higher, −0.01003
- Nc1ccc(C(=O)Nc2cccc(-c3nc(N4CCOCC4)c4oc5ncccc5c4n3)c2)cn1 [YM201636] — higher, −0.5268
- COc1cc2ncnc(Nc3ccc(Cl)cc3F)c2cc1OC [ZM 306416] — higher, 0.5807
- Cc1cc(F)c(Nc2ncnc3cc(OCc4ccccc4)ccc23)cc1O.Cl [ZM 323881 HCl] — higher, 0.1765
- Cc1ccc(NC(=O)c2cccc(N(C)C)c2)cc1NC(=O)c1ccc(O)cc1 [ZM 336372] — higher, 0.2177
- COc1cc2c(Nc3ccc(NC(=O)c4ccccc4)cc3)ncnc2cc1OCCCN1CCOCC1 [ZM 447439] — higher, 0.52
- FC(F)c1nc2ccccc2n1-c1nc(N2CCOCC2)nc(N2CCOCC2)n1 [ZSTK474] — higher, −0.8509
- CCN1CCN(Cc2ccc(Nc3ncc(F)c(-c4cc(F)c5nc(C)n(C(C)C)c5c4)n3)nc2)CC1 [abemaciclib (LY2835219)] — higher, 0.1618
- GZD824 Dimesylate — higher, 1.434
- KN-62 — higher, −0.07258
- KX2-391 — higher, 0.3892
- PF-477736 — lower, −2.035
- S-Ruxolitinib (INCB018424) — higher, −0.1855
- SNS-314 Mesylate — higher, 0.4469
- Skepinone-L — higher, −0.7997
